For series [1], the target named is T1, CX3CR1 (Homo sapiens, UniProt P49238).
T1 sequence (P49238 1-355): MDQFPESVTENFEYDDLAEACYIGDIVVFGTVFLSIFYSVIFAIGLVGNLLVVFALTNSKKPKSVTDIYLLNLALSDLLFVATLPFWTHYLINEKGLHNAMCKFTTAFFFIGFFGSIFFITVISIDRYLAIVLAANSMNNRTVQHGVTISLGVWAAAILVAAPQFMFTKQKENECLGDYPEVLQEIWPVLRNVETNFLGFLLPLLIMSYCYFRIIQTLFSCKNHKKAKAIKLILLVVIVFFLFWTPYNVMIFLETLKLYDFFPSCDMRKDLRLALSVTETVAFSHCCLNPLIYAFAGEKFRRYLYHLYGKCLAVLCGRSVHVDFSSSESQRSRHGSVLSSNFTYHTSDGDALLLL
The note with it: binding affinity, reported; cited from earlier work.

For series [2], the target named is T2, CXCR2 (Homo sapiens, UniProt P25025).
T2 sequence (P25025 1-360): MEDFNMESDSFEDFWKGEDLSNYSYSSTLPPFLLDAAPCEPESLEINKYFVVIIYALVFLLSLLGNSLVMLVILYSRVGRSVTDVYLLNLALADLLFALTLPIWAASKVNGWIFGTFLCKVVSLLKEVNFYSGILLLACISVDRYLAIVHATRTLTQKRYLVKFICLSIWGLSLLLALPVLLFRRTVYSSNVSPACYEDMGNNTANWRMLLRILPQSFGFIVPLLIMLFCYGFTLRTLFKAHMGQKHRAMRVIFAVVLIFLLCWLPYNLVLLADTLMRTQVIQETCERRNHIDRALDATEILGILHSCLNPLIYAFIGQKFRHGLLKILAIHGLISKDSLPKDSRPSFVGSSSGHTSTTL
As to conditions: cited from earlier work; for Ki: binding affinity, reported.

Series [3] is described as follows: small animal PET imaging of 2-[18F]FBTTP in healthy mice. The format is in vivo. The note with it: 350 μCi via tail vein, PET at 10 min, 30 min, 1 hour and 2 hours post-injection. As for the experimental part:
(R)-2-((2-amino-5-mercaptothiazolo[4,5-d]pyrimidin-7-yl)amino)-4-methylpentan-1-ol was synthesized as previously reported (Karlstrom et al., 2013) and alkylated with 2-[^18F]fluoro-benzylbromide to produce 2-[^18F]FBTTP. 2-[^18F]fluorobenzylbromide was prepared by a one-pot microwave radiofluorination of 2-formyl-N,N,N-trimethylbenzenanilinium triflate followed by sodium borohydride reduction, and bromination with 48% HBr using a procedure analogous to that reported for the preparation of 4-[^18F]fluoro-benzylbromide (Cho et al., 2012; Ravert et al., 2014). 2-[^18F]FBTTP (350 μCi) was injected via the tail vein of healthy mice and imaged using small animal PET. Images were collected at 10, 30, 60, and 120 min post-injection. 2-[^18F]FBTTP was prepared in a decay corrected yield of 10.2% in a specific activity of 1500 Ci/mmol (55,500 GBq/mmol) in a total synthesis time of 110 min.
To evaluate in vivo pharmacokinetics of 2-[^18F]FBTTP, 350 μCi of the radiotracer was formulated in 200 μL of saline with 10% ethanol and injected into healthy mice via the tail vein. The images were collected at 10 min, 30 min, 1 hour and 2 hours post-injection.

Molecules are shown by their SMILES.

Take `CC(C)C[C@H](CO)Nc1nc(SC(C)c2ccccc2F)nc2nc(N)sc12` (stereo partly drawn) [Compound 9e, (2R)-2-((2-amino-5-((1-(2-fluorophenyl)ethyl)thio)thiazolo[4,5-d]pyrimidin-7-yl)amino)-4-methylpentan-1-ol]: the Ki (usually a dissociation constant, usually derived from enzyme kinetics or from competition with a known ligand) in series [1] is 4.7 nM; in series [2], 1400 nM.

Turning to `CC(C)CC(CO)Nc1nc(SCc2ccccc2[18F])nc2nc(N)sc12` (centres unmarked) [2-[^18F]FBTTP, 2-((2-amino-5-((2-[18F]fluorobenzyl)thio)thiazolo[4,5-d]pyrimidin-7-yl)amino)-4-methylpentan-1-ol], in series [3], the in vivo pharmacokinetics entry is listed as “favorable in vivo pharmacokinetics”.

As to `CC(C)C[C@H](CO)Nc1nc(SCc2ccc(Br)cc2F)nc2nc(N)sc12` [Compound 9f, (R)-2-((2-amino-5-((4-bromo-2-fluorobenzyl)thio)thiazolo[4,5-d]pyrimidin-7-yl)amino)-4-methylpentan-1-ol], in series [2], the Ki was 1400 nM.

Consider `CC(C)C[C@H](CO)Nc1nc(SCc2ccccc2F)nc2nc(N)sc12` [Compound 9d, (R)-2-((2-amino-5-((2-fluorobenzyl)thio)thiazolo[4,5-d]pyrimidin-7-yl)amino)-4-methylpentan-1-ol], for which the “selectivity over CXCR2” value in series [2] (CX3CR1 over CXCR2) is 18 fold.

The values above are taken from patent publication US20180222922A1, “RADIOFLUORINATED 7-AMINO-5-THIO-THIAZOLO[4,5-D]PYRIMIDINES FOR IMAGING FRACTALKINE RECEPTOR (CX3CR1)” (THE JOHNS HOPKINS UNIVERSITY, priority 2015, published 2018).
